Laboratory results from ChEMBL document CHEMBL3608203, “Benzylated and prenylated flavonoids from the root barks of Cudrania tricuspidata with pancreatic lipase inhibitory activity” (Bioorg Med Chem Lett, 2015).
Activity calls are given as the source filed them. The rule behind the calls is not given here.

Experiments:
[1] = target: T1, Pancreatic triacylglycerol lipase (Sus scrofa, UniProt P00591); experiment: Inhibition of porcine pancreatic lipase pre-incubated for 15 mins before p-nitrophenylbutyrate substrate addition by microplate reader based method
T1 sequence (P00591 whole entry): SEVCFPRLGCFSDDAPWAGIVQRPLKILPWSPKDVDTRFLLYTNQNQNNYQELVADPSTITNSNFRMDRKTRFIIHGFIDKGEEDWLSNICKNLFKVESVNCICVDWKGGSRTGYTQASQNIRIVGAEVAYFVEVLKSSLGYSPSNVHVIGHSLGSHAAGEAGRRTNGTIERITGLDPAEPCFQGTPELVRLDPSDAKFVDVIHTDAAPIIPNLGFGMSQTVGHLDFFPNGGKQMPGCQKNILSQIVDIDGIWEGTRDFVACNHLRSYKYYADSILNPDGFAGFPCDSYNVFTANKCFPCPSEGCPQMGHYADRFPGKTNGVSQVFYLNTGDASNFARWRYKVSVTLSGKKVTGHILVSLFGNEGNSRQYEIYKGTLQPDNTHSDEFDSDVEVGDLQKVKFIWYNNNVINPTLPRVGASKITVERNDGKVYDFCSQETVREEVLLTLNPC

[2] = target: T2, Pancreatic triacylglycerol lipase (Sus scrofa) (UniProt P00591); experiment: Inhibition of porcine pancreatic lipase at 100 ug/ml pre-incubated for 15 mins before p-nitrophenylbutyrate substrate addition by microplate reader based method
T2 sequence (whole entry): T1 sequence (P00591 whole entry)

[3] = target: T2, Pancreatic triacylglycerol lipase (Sus scrofa); experiment: Mixed type inhibition of porcine pancreatic lipase pre-incubated for 15 mins before p-nitrophenylbutyrate substrate addition by Lineweaver-Burk plot method

For `CC1(C)C=Cc2c(cc3occc(=O)c3c2O)O1`, the IC50 [1] was greater than 100 µM and the inhibition [2] was 27.5%.
With `O=C1c2c(cc(O)c(O)c2O)O[C@H](c2ccc(O)cc2)[C@H]1O` the IC50 [1] was greater than 100 µM and the inhibition [2] was 40.1%.
`CC(C)(O)CCc1c(O)cc(O)c2c1O[C@@H](c1cc3c(cc1O)OC(C)(C)C=C3)CC2=O` showed an IC50 [1] of 84.6 µM and an inhibition [2] of 52%.
For `CC(C)=CCc1c(O)c(Cc2ccc(O)cc2)c(O)c2c1O[C@H](c1ccc(O)cc1)CC2=O`, the IC50 [1] was 54.8 µM and the inhibition [2] was 70.1%.
`COc1ccc(-c2coc3cc(O)cc(O)c3c2=O)cc1` [BIOCHANIN] showed an IC50 [1] greater than 100 µM and an inhibition [2] of 6.1%.
For `CC(C)=CCc1c(O)cc2c(c1O)C(=O)C[C@@H](c1cc3c(cc1O)OC(C)(C)C=C3)O2` [CUDRAFLAVANONE A], the IC50 [1] was 6.5 µM, the inhibition [2] was 81.4% and the inhibition [3] was “Active”.
Work on `O=C1c2c(O)cc(O)cc2O[C@H](c2ccc(O)cc2)[C@H]1O` [DIHYDROKAEMPFEROL] yielded an IC50 [1] greater than 100 µM and an inhibition [2] of 10.8%.
With `O=c1c(-c2ccc(O)cc2)coc2cc(O)cc(O)c12` [GENISTEIN] the IC50 [1] was greater than 100 µM and the inhibition [2] was 3.2%.
`O=c1c(O)c(-c2ccc(O)cc2)oc2cc(O)cc(O)c12` [KAEMPFEROL] was tested, and the IC50 [1] was greater than 100 µM and the inhibition [2] was 37%.
Molecule `O=c1c(O)c(-c2ccc(O)cc2O)oc2cc(O)cc(O)c12` [MORIN] has an IC50 [1] greater than 100 µM and an inhibition [2] of 26.3%.
For `O=C1C[C@@H](c2ccc(O)cc2)Oc2cc(O)cc(O)c21` [NARINGENIN], the IC50 [1] was greater than 100 µM and the inhibition [2] was 25.2%.
Molecule `CC(C)=CCc1c(O)cc(O)c2c1OC(c1ccc(O)cc1)CC2=O` (configuration not stated) [SOPHORAFLAVANONE B] has an IC50 [1] of 76.9 µM and an inhibition [2] of 55.5%.
`CC(C)=CCc1c(O)cc2occ(-c3ccc(O)cc3)c(=O)c2c1O` [WIGHTEONE] was tested, and the IC50 [1] was greater than 100 µM and the inhibition [2] was 49.6%.
